Values belong to the compound of their own block, whether it stands above or below them.
Experiments:
integrin α6 = details: cited from earlier work
Excerpt: We further translated the RWY peptide into an integrin α6-targeted PET probe and MRI probe that have been successfully applied for tumor imaging of the integrin α6 expression ([Feng GK et al., 2019]; [Xiao et al., 2019]; [Zhang Y et al., 2020]; [Gao et al., 2020]). Recently, our group improved the characteristics of the peptide by alanine scanning and obtained a novel integrin α6-targeting peptide […] (dubbed S5) which ...

[1] = system: NALM6-luciferase tumor-bearing mice; experiment: T1-weighted MR imaging of NALM6-luciferase tumor-bearing mice (CNS-L); assay type: in vivo, NOD/SCID mice; details: 0.03 mmol of Gd/kg, tail vein, 3.0 T, baseline and 5, 10, 15 min post-injection
Protocol: The human ALL cell lines including NALM6, Reh, Jurkat, and CCRF-CEM were purchased from the American Type Culture Collection (ATCC) and cultured in RPMI 1640 medium supplemented with 10% fetal bovine serum and 0.5% penicillin–streptomycin and incubated at 37 °C/5%CO2. To facilitate tumor monitoring, luminescent cells NALM6-luciferase were generated by stable transfection with luciferase. Female NOD/SCID mice (6 weeks old) were purchased from Vita River, Charles River Laboratories, China (Beijing, China). NOD/SCID mice were injected via the tail vein with 1 × 10^6 luciferased cells suspended in 150 µl of sterile phosphate-buffered saline (PBS). Bioluminescence imaging was applied to monitor the leukemic burden. All animal experiments were approved by the Institutional Animal Care and Use Committee (IACUC) at the Sun Yat-sen University Cancer Center (IACUC approval number L102012020070M), and the welfare and treatment of the laboratory animals were in accordance with the corresponding animal management regulations.
Bioluminescence confirmed CNS-L mice were used for MR and PET imaging studies in the next few days after the NIRF imaging. MR imaging was performed using a Philips Achieva 3.0 T system. Mice were anesthetized with 2,2,2-Tribromoethanol ([…]), fixed on the holder, and placed into the mouse-imaging coil. […]

[2] = system: Human ITGA6 & ITGB4 Heterodimer Protein; experiment: Microscale thermophoresis affinity of S5 peptides; assay type: binding; details: cyclic vs straight S5 peptide; preliminary experiments, Supplementary Figures S2A, S2B; MST, Monolith NT.115, protein 100 nM, peptide from 100 uM diluted 1:1, PBST, 80 % LED/excitation power, medium MST power
Protocol: The affinity of cyclic S5 peptide, straight S5 peptide, NOTA-S5 and Gd-S5 with Human ITGA6 & ITGB4 Heterodimer Protein (Manufactured by Sino Biological Catalog Number: CT069-H2508H) was determined by microscale thermophoresis (MST). Firstly, 0.05% PBST was prepared, 25ul of Tween 20 was added to 50ml of PBS and filtered through 0.22um filter paper. Then dilute the peptide: dissolve the above 4 peptides into 1mM storage solution concentration. Take 20 ul of peptide and mix with 80 ul of PBST and dilute to a working concentration of […]. Next dilute the dye: Take 2 µL of RED-tris-NTA II dye (Manufactured by NanoTemper Cat# MO-L018 5 µM) and mix with 98 µl of PBST to obtain 100 µL of dye (100 nM). Finally, 100 ul of Human ITGA6 & ITGB4 Heterodimer Protein (400 nM) was mixed with 100 ul of dye (100 nM) and incubated at room temperature for 30 min, at which time the protein concentration was 200 nM. 10 ul of peptide (200 uM) was added to the PCR tube, and 16 tubes were diluted 1:1 with PBST. Then take 3 ul of protein/dye mixture in the PCR tube, add 3 ul of […] concentrations of peptide and mix well. The concentration of protein was 100 nM and the concentration of peptide in the first tube was 100 uM. […] Kd was calculated by Kd fitting mode using MO.Affinity Analysis.

NALM6 cells = experiment: Immunofluorescence / confocal microscopy of S5 peptide in NALM6 cells; assay type: cell-based, human
Protocol: Approximately 1 × 10^6 NALM6 cells were seeded on cover slips in 24-well plates and incubated for 24 h. Subsequently, the 80 μM S5 peptide was added into the culture medium and incubated with cells for 4 h, while the blank control group was added to the same volume of RPMI 1640 medium. After that, cells of each group were washed with PBS five times, fixed with 4% paraformaldehyde for 15 min, permeabilized with 0.1% Triton X-100 (Sigma-Aldrich, Germany), and blocked with 1% BSA for 30 min. The cover slips were incubated with the anti-integrin α6 antibody (Abcam, ab181551) at 4°C overnight, followed by incubation with streptavidin-Cy3 (Thermo Fisher 434315, United States) and the goat anti-mouse Alexa Fluor 488 secondary antibody (Abcam, ab150113) for 1 h at room temperature in a dark chamber. Finally, cover slips were incubated with 1 μg/ml DAPI and mounted with slides with ProLong gold antifade (Invitrogen P26930, United States). Fluorescence images were visualized and captured under a confocal microscopy confocal laser-scanning system (Zeiss, LSM980, Germany) at 40× and 100× magnification. Co-localization was analyzed by ImageJ (http://rsbweb.nih.gov/ij/) and the co-localization finder plug-in.

Compound: CRWYDENAC [reference compound]
binding to integrin α6 (integrin α6; identified by phage display technology, ref Feng G et al., 2019): could bind specifically to integrin α6

Compound: O=C([O-])CN(CCN(CC(=O)[O-])CC(=O)O)CCN(CC(=O)[O-])CC(=O)O.[Gd+3] [Gd-DTPA, gadolinium-diethylenetriamine pentaacetic acid]
MR enhancement signals [1]: did not show obvious enhancement signals

binding of cyclic and straight peptides compared [2]: equivalent
Compound: CRWYDANAC [S5]
specificity and affinity to integrin α6 (integrin α6; vs RWY, obtained by alanine scanning, ref Mei et al., 2020, Lin et al., 2021): higher specificity and affinity
cellular uptake of the S5 peptide (NALM6 cells; 80 μM S5 peptide, 4 h, green fluorescence): entered the cytoplasm through cytocytosis after binding to the cell membrane
cellular localization of the S5 peptide (NALM6 cells; 80 μM S5 peptide, 4 h of co-culturing, fluorescence microscopy): enriched and localized at the nuclei of NALM6 cells
location of integrin α6 and the S5 peptide confirmed by confocal microscopy (Discussion) (NALM6 cells; NALM6 cells, as summarised in Discussion): dominating membrane location

Source: PMC8905628, “Integrin α6-Targeted Molecular Imaging of Central Nervous System Leukemia in Mice” (Frontiers in Bioengineering and Biotechnology, 2022)
